Assay: recombinant barcode read abundance after kanamycin selection (control-corrected) (log10(CPM+1)); higher = more efficient recombination; sequences stand for … in AGTGCAGAGAAAATCGGCCAGTTTTCTCTGCCTGCAGTCCGCATGCCGT…AGATTTATGCAGCGGACTGCCTTTCTCCCAAAGTGATAAACCGGACAGTATCATGGACCGGTTTTCCCGGTAATCCGTATTTGCAAGGTTGGTTTCACT; site = the 11-nt target
Summary of the method: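 Targets and IS621 bridge RNA target-binding loops were paired in oligos, each with a promoter, a barcode and the J23119-driven first 104 bridge RNA bases. A vector carrying the remaining 73 bp and a T7-inducible recombinase received these by Gibson cloning, and the pool was co-electroporated into E. coli with a donor plasmid. Duplicate plates contained chloramphenicol/ampicillin LB agar (control) or chloramphenicol/ampicillin/kanamycin with 0.1 mM IPTG. Recombination efficiency comes from averaged, control-corrected counts per million of recombinant-junction barcodes, reported as log10(CPM+1).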
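Also: IS621 recombinase and bridge RNA in Escherichia coli cells.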

Sequence: GTTACTACTTGGGTTCTAACCTGTTGCCG (site GTTACTACTCG)
- recombinant barcode read abundance (log10): 0.13

Sequence: GTTACTACTTGGGTTCTAACCTGTTGCCG (site TGGTACCCTTA)
- recombinant barcode read abundance (log10): 0.0233

Sequence: GTTCAGACTTGGGTTCTAACCTGTTGCTT (site CCAAGTCCTTG)
- recombinant barcode read abundance (log10): 0.284

Sequence: GTTCAGACTTGGGTTCTAACCTGTTGCTT (site GTTCAGACTAA)
- recombinant barcode read abundance (log10): 1.06

Sequence: GTTCATCCTTGGGTTCTAACCTGTTGCCT (site GATCATCCTAG)
- recombinant barcode read abundance (log10): 0.48

Sequence: GTTCATCCTTGGGTTCTAACCTGTTGCCT (site GTTCATCCTAG)
- recombinant barcode read abundance (log10): 1.02

Sequence: GTTCGTCCTTGGGTTCTAACCTGTTGCCA (site CCAATGTCTAC)
- recombinant barcode read abundance (log10): 0.104

Sequence: GTTCGTCCTTGGGTTCTAACCTGTTGCCA (site GTTCGTCCTTG)
- recombinant barcode read abundance (log10): 0.0879

Sequence: GTTGGGACTTGGGTTCTAACCTGTTGCCT (site GTTGGAACTAC)
- recombinant barcode read abundance (log10): 0.109

Sequence: GTTGGGACTTGGGTTCTAACCTGTTGCCT (site GTTGGGACTAG)
- recombinant barcode read abundance (log10): 2

Sequence: GTTGGGGCTTGGGTTCTAACCTGTTGCGG (site CTTGGGCCTCC)
- recombinant barcode read abundance (log10): 0.019

Sequence: GTTGGGGCTTGGGTTCTAACCTGTTGCGG (site GTTGGGGCTCC)
- recombinant barcode read abundance (log10): 2

Sequence: GTTGGTCCTTGGGTTCTAACCTGTTGCCT (site GTGGTTCCTAG)
- recombinant barcode read abundance (log10): 0.114

Sequence: GTTGGTCCTTGGGTTCTAACCTGTTGCCT (site GTTGGTCCTAG)
- recombinant barcode read abundance (log10): 1.75

Sequence: GTTTAATCTTGGGTTCTAACCTGTTGCCT (site GTTTAATCTAG)
- recombinant barcode read abundance (log10): 0.216

Sequence: GTTTAATCTTGGGTTCTAACCTGTTGCCT (site GTTTAGTCTAG)
- recombinant barcode read abundance (log10): 0.233

Sequence: GTTTATACTTGGGTTCTAACCTGTTGCCA (site AGAGTAGCTGT)
- recombinant barcode read abundance (log10): 0.0898

Sequence: GTTTATACTTGGGTTCTAACCTGTTGCCA (site GTTTATACTTG)
- recombinant barcode read abundance (log10): 0.41

Sequence: GTTTCACCTTGGGTTCTAACCTGTTGCCT (site GTTACACCTAG)
- recombinant barcode read abundance (log10): 0.128

Sequence: GTTTCACCTTGGGTTCTAACCTGTTGCCT (site GTTTCACCTAG)
- recombinant barcode read abundance (log10): 0.491

Sequence: GTTTCGACTTGGGTTCTAACCTGTTGCCT (site GTTTCGACTAG)
- recombinant barcode read abundance (log10): 0.128

Sequence: GTTTCGACTTGGGTTCTAACCTGTTGCCT (site GTTTCGTCTAG)
- recombinant barcode read abundance (log10): 0.173

Sequence: GTTTCGACTTGGGTTCTAACCTGTTGCTA (site GTTTCGACTTA)
- recombinant barcode read abundance (log10): 0.238

Sequence: GTTTCGACTTGGGTTCTAACCTGTTGCTA (site TCGGATGCTAT)
- recombinant barcode read abundance (log10): 0.188

Sequence: GTTTCGGCTTGGGTTCTAACCTGTTGCCT (site GTTACGGCTAG)
- recombinant barcode read abundance (log10): 0.041

Sequence: GTTTCGGCTTGGGTTCTAACCTGTTGCCT (site GTTCCGGCTAG)
- recombinant barcode read abundance (log10): 0.357

Sequence: GTTTCGGCTTGGGTTCTAACCTGTTGCCT (site GTTGCGGCTAG)
- recombinant barcode read abundance (log10): 0.101

Sequence: GTTTCGGCTTGGGTTCTAACCTGTTGCCT (site GTTTCGGCTAG)
- recombinant barcode read abundance (log10): 0.342

Sequence: GTTTGGCCTTGGGTTCTAACCTGTTGCTT (site GTTTGACCTAA)
- recombinant barcode read abundance (log10): 0

Sequence: GTTTGGCCTTGGGTTCTAACCTGTTGCTT (site GTTTGCCCTAA)
- recombinant barcode read abundance (log10): 0.154

Sequence: GTTTGGCCTTGGGTTCTAACCTGTTGCTT (site GTTTGGCCTAA)
- recombinant barcode read abundance (log10): 0.541

Sequence: GTTTGGCCTTGGGTTCTAACCTGTTGCTT (site GTTTGTCCTAA)
- recombinant barcode read abundance (log10): 0.167

Sequence: TAAAACCCTTGGGTTCTAACCTGTTGCAT (site CCGCGGACTTA)
- recombinant barcode read abundance (log10): 0.15

Sequence: TAAAACCCTTGGGTTCTAACCTGTTGCAT (site TAAAACCCTAT)
- recombinant barcode read abundance (log10): 0.713

Sequence: TAAAAGGCTTGGGTTCTAACCTGTTGCCT (site TAAAAGACTAG)
- recombinant barcode read abundance (log10): 0.102

Sequence: TAAAAGGCTTGGGTTCTAACCTGTTGCCT (site TAAAAGCCTAG)
- recombinant barcode read abundance (log10): 0.0288

Sequence: TAAAAGGCTTGGGTTCTAACCTGTTGCCT (site TAAAAGGCTAG)
- recombinant barcode read abundance (log10): 0.0132

Sequence: TAAAAGGCTTGGGTTCTAACCTGTTGCCT (site TAAAAGTCTAG)
- recombinant barcode read abundance (log10): 0.142

Sequence: TAAAATACTTGGGTTCTAACCTGTTGCCT (site TAAAATACTAG)
- recombinant barcode read abundance (log10): 0.1

Sequence: TAAAATACTTGGGTTCTAACCTGTTGCCT (site TAGATTACTAG)
- recombinant barcode read abundance (log10): 0.272

Sequence: TAACACTCTTGGGTTCTAACCTGTTGCTT (site GAACACTCTCA)
- recombinant barcode read abundance (log10): 0.105

Sequence: TAACACTCTTGGGTTCTAACCTGTTGCTT (site TAACACTCTAA)
- recombinant barcode read abundance (log10): 1.51

Sequence: TAACGTACTTGGGTTCTAACCTGTTGCAT (site TAACATACTAT)
- recombinant barcode read abundance (log10): 0.0677

Sequence: TAACGTACTTGGGTTCTAACCTGTTGCAT (site TAACCTACTAT)
- recombinant barcode read abundance (log10): 0.135

Sequence: TAACGTACTTGGGTTCTAACCTGTTGCAT (site TAACGTACTAT)
- recombinant barcode read abundance (log10): 0.696

Sequence: TAACGTACTTGGGTTCTAACCTGTTGCAT (site TAACTTACTAT)
- recombinant barcode read abundance (log10): 0.103

Sequence: TAACTAGCTTGGGTTCTAACCTGTTGCTA (site GTGTATACTAT)
- recombinant barcode read abundance (log10): 0.212

Sequence: TAACTAGCTTGGGTTCTAACCTGTTGCTA (site TAACTAGCTTA)
- recombinant barcode read abundance (log10): 0.141

Sequence: TAAGGAGCTTGGGTTCTAACCTGTTGCCT (site TAAGGAGCTAG)
- recombinant barcode read abundance (log10): 1.39

Sequence: TAAGGAGCTTGGGTTCTAACCTGTTGCCT (site TAGGGCGCTAG)
- recombinant barcode read abundance (log10): 0.0289

Sequence: TAAGGGACTTGGGTTCTAACCTGTTGCTA (site CGCCCTTCTAG)
- recombinant barcode read abundance (log10): 0.239

Sequence: TAAGGGACTTGGGTTCTAACCTGTTGCTA (site TAAGGGACTTA)
- recombinant barcode read abundance (log10): 2.26

Sequence: TAAGGTACTTGGGTTCTAACCTGTTGCTT (site TAAAGTACTAA)
- recombinant barcode read abundance (log10): 0.0963

Sequence: TAAGGTACTTGGGTTCTAACCTGTTGCTT (site TAACGTACTAA)
- recombinant barcode read abundance (log10): 0.151

Sequence: TAAGGTACTTGGGTTCTAACCTGTTGCTT (site TAAGGTACTAA)
- recombinant barcode read abundance (log10): 1.26

Sequence: TAAGGTACTTGGGTTCTAACCTGTTGCTT (site TAATGTACTAA)
- recombinant barcode read abundance (log10): 0.0967

Sequence: TAAGGTCCTTGGGTTCTAACCTGTTGCAG (site TAAGGTCCTCT)
- recombinant barcode read abundance (log10): 2.47

Sequence: TAAGGTCCTTGGGTTCTAACCTGTTGCAG (site TAGGGTCCTCC)
- recombinant barcode read abundance (log10): 0.158

Sequence: TAAGTCACTTGGGTTCTAACCTGTTGCCT (site GAAGTCACTAG)
- recombinant barcode read abundance (log10): 0.0452

Sequence: TAAGTCACTTGGGTTCTAACCTGTTGCCT (site TAAGTCACTAG)
- recombinant barcode read abundance (log10): 1.9

Sequence: TAAGTGTCTTGGGTTCTAACCTGTTGCCT (site TAAGTGTCTAG)
- recombinant barcode read abundance (log10): 2.56

Sequence: TAAGTGTCTTGGGTTCTAACCTGTTGCCT (site TACGTGTCTAG)
- recombinant barcode read abundance (log10): 0.171

Sequence: TAAGTGTCTTGGGTTCTAACCTGTTGCCT (site TAGGTGTCTAG)
- recombinant barcode read abundance (log10): 0.314

Sequence: TAAGTGTCTTGGGTTCTAACCTGTTGCCT (site TATGTGTCTAG)
- recombinant barcode read abundance (log10): 1.03

Sequence: TAATGAACTTGGGTTCTAACCTGTTGCCT (site TAATGAACTAG)
- recombinant barcode read abundance (log10): 0.32

Sequence: TAATGAACTTGGGTTCTAACCTGTTGCCT (site TAATGTACTAG)
- recombinant barcode read abundance (log10): 0.216

Sequence: TAATGACCTTGGGTTCTAACCTGTTGCAT (site TAATGACCTAA)
- recombinant barcode read abundance (log10): 0.0652

Sequence: TAATGACCTTGGGTTCTAACCTGTTGCAT (site TAATGACCTAT)
- recombinant barcode read abundance (log10): 1.67

Sequence: TAATGGTCTTGGGTTCTAACCTGTTGCAT (site TAATGGTCTAT)
- recombinant barcode read abundance (log10): 1.61

Sequence: TAATGGTCTTGGGTTCTAACCTGTTGCAT (site TAATGTTCTAT)
- recombinant barcode read abundance (log10): 0.065

Sequence: TAATTGCCTTGGGTTCTAACCTGTTGCCT (site TAATTGCCTAG)
- recombinant barcode read abundance (log10): 0.645

Sequence: TAATTGCCTTGGGTTCTAACCTGTTGCCT (site TACTTGCCTAG)
- recombinant barcode read abundance (log10): 0.324

Sequence: TAATTGCCTTGGGTTCTAACCTGTTGCCT (site TAGTTGCCTAG)
- recombinant barcode read abundance (log10): 0.474

Sequence: TAATTGCCTTGGGTTCTAACCTGTTGCCT (site TATTTGCCTAG)
- recombinant barcode read abundance (log10): 0.0725

Sequence: TACAAGCCTTGGGTTCTAACCTGTTGCCT (site TACAAGCCTAG)
- recombinant barcode read abundance (log10): 0.338

Sequence: TACAAGCCTTGGGTTCTAACCTGTTGCCT (site TAGAAGCCTCG)
- recombinant barcode read abundance (log10): 0.0913

Sequence: TACAAGGCTTGGGTTCTAACCTGTTGCGG (site TACAAGGCTCC)
- recombinant barcode read abundance (log10): 2.68

From the supplement of paper PMC11208160
